Data reported in PMC13586308, “Cell type–selective targeting by heterobifunctional protein binders via in-cell enrichment” (Nature Communications, 2026).
Read-outs that look alike come from different tables or passages of the source.

Tests used:
[1] = cell uptake assay (LC-MS/MS) in MV4-11
MYC mRNA = assay: wash-off experiment, MYC mRNA in MV4-11; assay type: cell-based, human
[2] = tested on: human myeloma cell lines (HMCL); assay: cell viability, panel of human myeloma cell lines +/- FKBP12 PROTAC; assay type: cell-based; conditions: all myeloma cell lines tested
[3] = in vitro metabolic study (intrinsic clearance); assay type: in vitro ADME; conditions: intrinsic clearance (Clint) study, rebuttal letter
Excerpt: 4.2. To strengthen the paper, the authors should consider conducting in vivo experiments to […]
a more comprehensive understanding of the therapeutic potential and pharmacokinetic […]
The current compounds were designed for mechanistic studies, not for in vivo experiments. To assess the possibility of animal studies we conducted an in vitro metabolic study for the two most advanced compounds (a1dj and b3c). […]
labile (see below). While we agree that it is exciting to explore the influence of the CellTrap effect on pharmacokinetic properties this must be explored in follow up studies, which require substantial medicinal chemistry optimization. With the current compounds we believe animal experiments are ethically not warranted.
4.3. Are there specific residues essential for the observed cooperativity? If so, empirically mapping these mutants and testing for a reduction in binding would help validate the structures and provide clues to the translatability of the CellTrap mechanism. […]
mediate the direct protein contacts to BRD4. To explore this, we measured binding of the homolog FKBP51, which differs in the loop/strand regions, to BRD4. […]
cooperativity for any compound, strongly supporting the relevance of the crystallographically observed contact. We discussed this in the text as:
In both ternary complexes, contacts to BRD4BD1 are formed by the tip of the so called 80s loop of […]

[4] = tested on: FKBP and BRD4 family members; assay: global proteomics after PROTAC treatment, MV4-11; assay type: cell-based, Homo sapiens
Procedure: Cell pellets equivalent to those used in the cell uptake assay were resuspended in 220 μL of 50 mM Tris pH 8.0, 2% SDS for 30 min at 850 rpm at RT, and centrifuged at 15000 g for 15 min. […] The supernatant was reduced with 5 mM DTT at 37 °C for 30 min then alkylated with 15 mM iodoacetamide at room temperature for 30 min in the dark. 150 μl of the solutions were subjected to a Protein Aggregation Capture digestion protocol using amine magnetic beads ([…]) and a King Fischer instrument (Thermo Scientific). In short, soluble proteins are captured on the magnetic beads and washed prior to the addition of 1/50 (w/w) trypsin (Promega) for an overnight digestion at 37 °C and 850 rpm. On the consecutive day, digested peptides are released, and the peptide concentration of the supernatants determined using a fluorimetric assay (Pierce). 200 ng peptide was loaded on Evotips (Evosep Biosystems). Peptides were separated on an Evosep One LC system coupled to a timsTOF Pro 2 instrument (Bruker) using a 30-sample-per-day method (44 min gradient). Peptides were resolved on an 8 cm, 1.5 μm x 150 μm Performance column (Evosep Biosystems). […] The relaxed-prot-inf option was used for library-free processing of the data. […] Match between runs (MBR) was enabled, and the normalization option switched on.

BRD4^BD1 = molecular target: T1, BRD4^BD1 (Homo sapiens, UniProt O60885); assay: competitive fluorescence polarization assay, BRD4 BD1 -/+ presenter protein; assay type: binding; conditions: for α BRD4^BD1 (binding cooperativity factor): ratio of binding in absence or presence of FKBP12
T1 construct: to the isolated BD1 and BD2 domains of BRD2, BRD3 and BRD4

gene expression = assay: RNA sequencing, MV4-11; assay type: cell-based, human; conditions: MV4-11, 6 h
Procedure: RNA was isolated using the Monarch Total RNA Isolation Kit. RNA quality was assessed using an Agilent TapeStation. All samples had calculated RINe values > 6 with a flat baseline. […] Samples were demultiplexed, and FastQ files were generated. Raw FASTQ reads were quality-filtered using fastp v1.3.2 to remove adapters, low-quality bases (Phred ≤ 5 in > 50% of read) and poly-N regions (> 10% N bases), retaining reads with Q20 ≥ 95% and Q30 ≥ 90%. GC content was calculated for clean reads. Filtered sequence reads were aligned to the human reference genome GRCh38 using HISAT2 v2.2.1, guided by GTF annotation. Mapped data were summarized on the gene level as Fragments Per Kilobase of transcript sequence per Millions base pairs sequenced (FPKM). Gene counts were quantified using featureCounts v2.0.6. Further data evaluation, normalization and pairwise differential expression analyses was done by DESeq2. For clustering, all differentially expressed genes were pooled as the differential gene set. FPKM values of genes were hierarchically clustered, rows were homogenized as Z-scores. For enrichment analysis of the differential expressed genes, cluster Profiler (Yu G, 2012) software was used on Gene Ontology (http://www.geneontology.org/) terms reflecting biological processes.

PNT1A cells [5] = assay: co-culture live cell microscopy cell count, PNT1A; assay type: cell-based; conditions: all concentrations
PNT1A cells [6] = assay: CellTiter-Glo cell viability, PNT1A; assay type: cell-based; conditions: concentrations of up to 1 µM
[7] = 15 µM FKBP51FK1, read-out: Binding to BRD4BD1 + FKBP51FK1 Kd
[8] = absence of FKBP12, 2 nM JQ1-FL tracer, read-out: Binding to BRD4^BD1 - FKBP12 Kd
[9] = absence of FKBP51FK1 (SI Table 3), read-out: Binding to BRD4BD1 - FKBP51FK1 Kd
[10] = presence of 15 µM FKBP12, read-out: Binding to BRD4^BD1 + FKBP12 Kd (converted)
[11] = values quoted in rebuttal letter (earlier version of Tab. 1), read-out: binding to BRD4BD1 + FKBP12

Cc1sc2c(c1C)C(c1ccc(Cl)cc1)=NC(CC(=O)NCCOCCn1cc(COCC3CN(C(C)c4ccccn4)C(=O)C4CCCC3N4S(=O)(=O)c3cc(Cl)cc(Cl)c3)nn1)c1nnc(C)n1-2 (centres unmarked) [a1dj]
effect of prior BRD4 depletion on cellular compound levels ([1]; BRD4-degrading PROTAC 43): did not affect cellular compound levels
concentration in the cellular fraction ([1]; MV4-11, 10 nM a1dj 2 h, mean across four independent experiments): 1680 ± 350 nM
reduction of intracellular accumulation upon FKBP12 degradation by PROTAC 5a1, mean ([1]; MV4-11, 100 nM 5a1): 51%
approximated concentration in the cellular fraction ([1]; MV4-11, earlier manuscript version quoted in rebuttal): > 1.8 µM
additional cellular enrichment mediated by other FKBPs ([1]; abolished by competition with 10 µM 18-(S)Me): 22%
FKBP12-mediated share of cellular accumulation ([1]; abolished by prior FKBP12 depletion, earlier manuscript version quoted in rebuttal): 58%
persistence of MYC repression after compound wash-out (MYC mRNA): up to 24 h
cytotoxicity upon depletion of FKBP12 compared to JQ1 [2]: almost identical to JQ1
in vitro metabolic stability [3]: metabolically labile
effect on BRD4 levels by global proteomics [4]: did not affect BRD4 levels
Kd (BRD4^BD1; [7]): 680 ± 100 nM
Kd (BRD4^BD1; [8]): 470 ± 60 nM
Kd (BRD4^BD1; [9]): 250 ± 80 nM
Kd (BRD4^BD1; [10]): 39 nM
α BRD4^BD1 (binding cooperativity factor) (BRD4^BD1): 12
Kd (BRD4^BD1; [11]): 32 nM
differentially expressed genes compared to JQ1-treated cells (gene expression): about 300 genes

Cc1sc2c(c1C)C(c1ccc(Cl)cc1)=NC(CC(=O)N1CCC3(CC1)CC(n1cc(C4CN(Cc5ccccn5)C(=O)C5CCCC4N5S(=O)(=O)c4cc(Cl)cc(Cl)c4)nn1)C3)c1nnc(C)n1-2 (centres unmarked) [a13c]
effect on PNT1A cells in co-culture (PNT1A cells [5]): unaffected
effect on PNT1A viability (PNT1A cells [6]): did not affect
Kd (BRD4^BD1; [7]): 870 ± 100 nM
Kd (BRD4^BD1; [8]): 4600 ± 800 nM
Kd (BRD4^BD1; [9]): 1500 ± 450 nM
Kd (BRD4^BD1; [10]): 35 nM
α BRD4^BD1 (binding cooperativity factor) (BRD4^BD1): 131
Kd (BRD4^BD1; [11]): 20 nM

Cc1sc2c(c1C)C(c1ccc(C#CCNC(=O)COCCn3cc(C4CN(Cc5ccccn5)C(=O)C5CCCC4N5S(=O)(=O)c4cc(Cl)cc(Cl)c4)nn3)cc1)=NC(CC(=O)OC(C)(C)C)c1nnc(C)n1-2 (centres unmarked) [b3c]
in vitro metabolic stability [3]: metabolically labile
Kd (BRD4^BD1; [7]): 50 ± 17 nM
Kd (BRD4^BD1; [8]): 130 ± 20 nM
Kd (BRD4^BD1; [9]): 73 ± 20 nM
Kd (BRD4^BD1; [10]): 8 nM
α BRD4^BD1 (binding cooperativity factor) (BRD4^BD1): 16
differentially expressed genes compared to JQ1-treated cells (gene expression): about 300 genes
